Assay results published in patent US5045546A, “8-azabicyclo[3.2.1]octylalkylthiazolidines” (Hoechst-Roussel Pharmaceuticals Inc., priority 1990, dated 1991).
Like-named read-outs stand apart in the source and are kept apart here.

Legend:
[1] = tested on: apomorphine induced stereotypy; experiment: inhibition of apomorphine stereotypy assay (potential for extrapyramidal side effects); assay type: in vivo, male Wistar rats; details: rats, drug one hour prior to scoring, apomorphine 1.5 mg/kg s.c.
Procedure: Potential for undersirable extrapyramidal side effect activity is determined in the inhibition of apomorphine stereotypy assay by a method similar to those described by N. E. Anden, et al., J. Pharma. Pharmacol., 19, 627, (1967), and A. M. Ernst, et al., Psychopharmacologia (Berl.), 10, 316 (1967).
In this assay, groups of male Wistar rats (125-200 grams) are used and food and water are available ad libitum. Drugs are prepared using distilled water and, if insoluble, a suitable surfactant is added. The route of administration may be varied and the dosage volume is 10 ml/kg. For a primary screen, a group size of six is used. Drug is administered one hour prior to scoring and the animals are placed in individual clear plastic cages (24×14×13 cm). The control group receives vehicle. Apomorphine hydrochloride solution is prepared at a concentration of 15 mg/10 ml in a 0.03% ascorbic acid stock solution (30 mg of ascorbic acid in 100 ml of 1% saline) to increase the stability of the apomorphine hydrochloride while in solution. Apomorphine hydrochloride solution is administered at a dose of 1.5 mg/kg subcutaneous (s.c.) with a dosage volume of 1 ml/kg. Fifty minutes after drug dosing, stereotypic behavior is noted. Stereotypic activity is defined as sniffing, licking or chewing behavior that occurs in a repetitive manner and is rated as follows: Constant sniffing, licking or chewing without interruption; the animal is considered protected if this behavior is interrupted.
The percent effectiveness of a drug is determined by the number of animals protected in each group. Antipsychotics displaying little effect in this assay would be expected to show a low propensity to cause undersirable extrapyramidal side effects and/or tardive dyskinesias in mammals (N. C. Moore and S. Gershon, Clinical Neuropharmacology, 12, 167, (1989).
A dose-response is run in the same manner as a primary screen except that a group size of 10 is used and the animals are dosed in a randomized manner. One group receives vehicle. ED50 for stereotypy are calculated by means of probit analysis.
Inhibition of apomorphine induced stereotypy of respresentative 8-azabicyclo[3.2.1]octylalkylthiazolidinones of the present invention and two standards is given in Table II.

[2] = tested on: apomorphine-induced climbing; experiment: inhibition of apomorphine-induced climbing in mice (climbing mice assay, antipsychotic activity); assay type: in vivo, CK-1 male mice; details: Mus musculus, ip, 0.5 h, read-out: Antipsychotic Activity ED50
Procedure: The 8-azabicyclo[3.2.1]octylalkylthiazolidnones of the present invention are useful for treating psychoses by virtue of their ability to block apomorphine-induced climbing in mammals.
Antipsychotic activity is determined in the climbing mice assay by a method similar to those described by P. Protais et al., Psychopharmacol., 50,1 (1976) and B. Costall, Eur. J. Pharmacol., 50, 39 (1978).
The subject CK-1 male mice (23-27 grams) are group-housed under standard laboratory conditions. The mice are individually placed in wire mesh stick cages (4"×4"×10") and are allowed one hour for adaptation and exploration of the new environment. Then apomorphine is injected subcutaneously at 1.5 mg/kg, a dose causing climbing in all subjects for 30 minutes. Compounds to be tested for antipsychotic activity are injected intraperitoneally 30 minutes prior to the apomorphine challenge at a screening dose of 10 mg/kg.
For evaluation of climbing, 3 readings are taken at 10, 20 and 30 minutes after apomorphine administration according to the following scale:
4 paws on bottom (no climbing)
2 paws on the wall (rearing)
4 paws on the wall (full climb)
Mice consistently climbing before the injection of apomorphine will be discarded.
With full-developed apomorphine climbing, the animals are hanging onto the cage walls, rather motionless, over longer periods of time. By contrast, climbs due to mere motor stimulation usually only last a few seconds.
The climbing scores are individually totaled (maximal score; 6 per mouse over 3 readings) and the total score of the control group (vehicle intraperitioneally-apomorphine subcutaneously) is set to 100%. ED50 values with 95% confidence limits are calculated by a Linear Regression Analysis. Antipsychotic activity expressed as the ED50 value of representative 8-azabicyclo[3.2.1]octylalkylthiazolidinones as well as two standard antipsychotics are presented in Table I.

Q: For `CC1(C)SCN(CCCCN2C3CCC2CC(OC(c2ccccc2)c2ccccc2)C3)C1=O.Cl` (centres unmarked) [3-[4-[3-(diphenylmethoxy)-8-azabicyclo[3.2.1]octan-8-yl]-butyl]-5,5-dimethyl-4-thiazolidinone hydrochloride], which “% Inhibition of apomorphine induced stereotypy” value (shortened to “% Inhibition”) ([1]; dose 40 mg/kg body wt.) is on record?
A: 17%

Q: What about the ED50 [2] of the same compound?
A: 7.73 mg/kg

Q: Which results are given for `CC1SCN(CCCCN2C3CCC2CC(OC(c2ccccc2)c2ccccc2)C3)C1=O.Cl` (centres unmarked) [3-[4-[3-(diphenylmethoxy)-8-azabicyclo[3.2.1]octan-8-yl]-butyl]-5-methyl-4-thiazolidinone hydrochloride]?
A: % Inhibition of apomorphine induced stereotypy ([1]; dose 20 mg/kg body wt.): 0%; ED50 [2]: 12.1 mg/kg

Q: With `O=C(CCCN1CCC(O)(c2ccc(Cl)cc2)CC1)c1ccc(F)cc1` [haloperidol] as the compound, how does the “% Inhibition” value ([1]; dose 0.2 mg/kg body wt.) read?
A: 50%

Q: What about the ED50 [2] of the same compound?
A: 0.16 mg/kg

Q: How did the “% Inhibition” value ([1]; dose 16 mg/kg body wt.) turn out when `CSc1ccc2c(c1)N(CCC1CCCCN1C)c1ccccc1S2` (centres unmarked) [thioridazine] was run?
A: 50%

Q: What about the ED50 ([2]; climbing mice assay, compound intraperitoneal 30 minutes prior to apomorphine 1.5 mg/kg s.c., Linear Regression Analysis) of the same compound?
A: 4.1 mg/kg
